Where “and” joins values, the source holds several entries; their conditions need not be identical. Identical values can stand only once.
What was measured:
[1] = system: rabbits; assay: Pyrogenicity on rabbits (French Pharmacopea protocol); assay type: in vivo; details: for Rise in temperature °C.: individual animals (batch of three), listed as product according to the invention
Protocol: The pyrogenic effect of the product according to the invention on rabbits was studied, following the protocol of the French Pharmacopea, 9e edition, II-235. Each test was carried out on a batch of three rabbits. The administration was first done by the subcutaneous route, then by the intravenous route. The results of these tests, that is to say the increase in temperature in the treated animals, were as follows: […]

[2] = system: female Hartley guinea pigs; assay: Adjuvant test in oily phase: delayed hypersensitivity cutaneous test to ovalbumin; assay type: in vivo, guinea pig
Protocol: (§1) The tests were carried out on female Hartley guinea pigs of 350 g. The administration was done by intradermal injection in the plantar pad of each of the rear paws. The ovalbumin (constituting the antigen) in the dose of 0.5 mg was prepared in 0.1 ml of an emulsion of saline isotonic solution, in an oily phase constituted either by the Freund incomplete adjuvant (FIA), or by the Freund complete adjuvant (FCA) formed by the FIA to which is added 0.1 mg of whole cells of Mycobacterium smegmatis. The compound according to the invention was administered in the dose of 0.1 mg added in the emulsion containing the FIA.
Eighteen days after this immunisation, possible reactions of delayed hypersensibility to the antigen were sought by injecting by the intradermal route 0.005 mg of ovalbumin into the side of the animals, and the reaction at the point of injection was observed 48 hours later. The diameter in mm of the thus provoked reaction was measured.

[3] = system: mice; assay: Toxicity by intravenous injection in mice; assay type: in vivo; details: mice aged two months
Description: The toxicity of the product according to the invention was studied by intravenous injection in mice aged two months.

[4] = system: female Hartley guinea pigs; assay: Adjuvant test in oily phase: specific serum antibody level to ovalbumin; assay type: in vivo, guinea pig
Protocol: In these tests, the growth of the specific antibody level of a given antigen when the latter is injected, with or without the adjuvant compound according to the invention, in the midst of a water and oil emulsion was followed.
as §1
Twenty one days after the injection, the animals were bled. On the serum collected, the specific antibody content of the ovalbumin was measured by precipitation of the antibody-antigen complex in the equivalence zone. The amount of protein nitrogen contained in this precipitate was evaluated according to the Folin method. These values express the amounts, in micrograms, of nitrogen precipitable by the antigen, per ml of serum.

## CC(=O)NC1C(Oc2ccc(N)cc2)OC(CO)C(O)C1O[C@H](C)C(=O)N[C@@H](C)C(=O)N[C@H](CCC(=O)O)C(N)=O (stereo partly drawn) [p-amino-phenyl-Mur-NAc-L-Ala-D-iso-Gln, 2-(p-amino-phenyl-2-acetamido-2-deoxy-3-O-D-glucopyranosyl)-D-propionyl-L-alanyl-D-isoglutamine]
[1]; doses where adjuvant properties are manifested
  Pyrogenicity (in words): apyrogenic
[1]; intravenous, 1.0 mg/kg
  Rise in temperature °C.: 0 °C and 0.4 °C and 0.6 °C
[1]; sub-cutaneous, 0.100 mg/kg, 0.1 mg/kg
  Rise in temperature °C.: 0 °C (2×) and 0.1 °C
[1]; sub-cutaneous, 0.500 mg/kg, 0.5 mg/kg
  Rise in temperature °C.: 0 °C and 0.2 °C and 0.1 °C
[2]; administered in oily emulsion
  Delayed-type hypersensitivity reaction to the antigen (in words): induces a hypersensitivity reaction of the delayed type
[2]; guinea pigs, challenge 0.005 mg ovalbumin intradermal 18 days after immunisation, read 48 hours later, adjuvant 100 μg
  Cutaneous test diameter in mm: 19.5±4.5 mm
[3]
  lethal dose (LD50): very much higher than that of the dosage at which the product manifests its adjuvant properties
[4]; administered in oily emulsion
  Effect on level of antibodies to the administered antigen (in words): distinctly facilitates the increase in the level of antibodies
[4]; guinea pigs, ovalbumin 0.5 mg intradermal in water-in-oil emulsion, adjuvant 100 μg, serum 21 days after injection, average values
  Seric antibodies (nitrogen precipitable by the antigen per ml of serum): 3500 µg/mL

Reference: US4185089A, “Immunological adjuvant constituted by the p-amino-phenyl derivative of N-acetyl-muramyl-L-alanyl-D-isoglutamine” (Agence Nationale de Valorisation de la Recherche (ANVAR), priority 1976, dated 1980)
